Data as given in the supplement of paper PMC11208160.

Assay: recombinant UMI read abundance after kanamycin selection (control-corrected) (log10(CPM+1)); higher = more efficient recombination; extreme values may be limits of the assay; sequences stand for … in AGTGCAGAGAAAATCGGCCAGTTTTCTCTGCCTGCAGTCCGCATGCCGTGGGACCCCTTGGGTTCTAACCTGTTGCCTAGATTTATGCAGCGGACTGCCTTTCTCCCAAAGTGATAAACCGG…AGGTTGGTTTCACT; site = the 11-nt donor
Method in brief: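 Each donor and donor-binding-loop pair was tracked by a 12-nt UMI on a plasmid carrying a promoterless kanamycin gene. With a second plasmid supplying a fixed target and T7-inducible IS621 bridge recombinase, the pool was plated in Escherichia coli on IPTG (0.07 mM) plus kanamycin or unselected. Sequencing of recombinant UMIs across the donor–target junction gave counts expressed as log10(CPM+1) after replicate averaging and control-derived scaling.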
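Also: IS621 bridge recombinase in Escherichia coli cells against a fixed T5 target plasmid.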

Sequence | recombinant UMI read abundance (log10)
TACATGACATGGACCGGTTTTCCCGGTAATCCGTATTTGGT (site TACATGACTAC) | 0.581
TACCACCCATGGACCGGTTTTCCCGGTAATCCGTATTTGAC (site TACCACCCTGT) | 0
TACCCAGCATGGACCGGTTTTCCCGGTAATCCGTATTTGCT (site TACCCAGCTAG) | 0.0305
TACCCATCATGGACCGGTTTTCCCGGTAATCCGTATTTGAG (site TACCCATCTCT) | 0.374
TACCCCTCATGGACCGGTTTTCCCGGTAATCCGTATTTGGC (site TACCCCTCTGC) | 3.09
TACCCGTCATGGACCGGTTTTCCCGGTAATCCGTATTTGCT (site TACCCGTCTAG) | 2.07
TACCGTCCATGGACCGGTTTTCCCGGTAATCCGTATTTGAT (site AACCGTCCTAT) | 0.0188
TACCGTCCATGGACCGGTTTTCCCGGTAATCCGTATTTGAT (site CACCGTCCTAT) | 0.00852
TACCGTCCATGGACCGGTTTTCCCGGTAATCCGTATTTGAT (site GACCGTCCTAT) | 0.00523
TACCGTCCATGGACCGGTTTTCCCGGTAATCCGTATTTGAT (site TACCGTCCTAT) | 0.00444
TACCTACCATGGACCGGTTTTCCCGGTAATCCGTATTTGAG (site TACCTACCTCT) | 0.0115
TACCTGACATGGACCGGTTTTCCCGGTAATCCGTATTTGGC (site TACCTGACTGC) | 0
TACGAATCATGGACCGGTTTTCCCGGTAATCCGTATTTGCG (site TAAGAATCTCG) | 0
TACGAATCATGGACCGGTTTTCCCGGTAATCCGTATTTGCG (site TACGAATCTCG) | 2.16
TACGAATCATGGACCGGTTTTCCCGGTAATCCGTATTTGCG (site TAGGAATCTCG) | 0.321
TACGAATCATGGACCGGTTTTCCCGGTAATCCGTATTTGCG (site TATGAATCTCG) | 2.1
TACGATACATGGACCGGTTTTCCCGGTAATCCGTATTTGGA (site TACGATACTTC) | 0.806
TACGCAACATGGACCGGTTTTCCCGGTAATCCGTATTTGAC (site TACGCAACTGT) | 2
TACGGAACATGGACCGGTTTTCCCGGTAATCCGTATTTGCA (site TACGGAACTTG) | 1.47
TACGTCGCATGGACCGGTTTTCCCGGTAATCCGTATTTGGA (site TACGTCGCTTC) | 1.08
TACTGAGCATGGACCGGTTTTCCCGGTAATCCGTATTTGGG (site TAATGAGCTCC) | 0.0256
TACTGAGCATGGACCGGTTTTCCCGGTAATCCGTATTTGGG (site TACTGAGCTCC) | 0.356
TACTGAGCATGGACCGGTTTTCCCGGTAATCCGTATTTGGG (site TAGTGAGCTCC) | 0.0147
TACTGAGCATGGACCGGTTTTCCCGGTAATCCGTATTTGGG (site TATTGAGCTCC) | 0
TACTGCCCATGGACCGGTTTTCCCGGTAATCCGTATTTGGA (site TACTGCCCTTC) | 0.00999
TACTGGGCATGGACCGGTTTTCCCGGTAATCCGTATTTGAA (site TACTGGGCTTT) | 0.637

Sequence | recombinant UMI read abundance (log10)
TACTTGACATGGACCGGTTTTCCCGGTAATCCGTATTTGCA (site TACTTGACTAG) | 0
TACTTGACATGGACCGGTTTTCCCGGTAATCCGTATTTGCA (site TACTTGACTCG) | 0.0381
TACTTGACATGGACCGGTTTTCCCGGTAATCCGTATTTGCA (site TACTTGACTGG) | 0
TACTTGACATGGACCGGTTTTCCCGGTAATCCGTATTTGCA (site TACTTGACTTG) | 0.591
TACTTGACATGGACCGGTTTTCCCGGTAATCCGTATTTGCT (site AACTTGACTAG) | 0
TACTTGACATGGACCGGTTTTCCCGGTAATCCGTATTTGCT (site CACTTGACTAG) | 0.342
TACTTGACATGGACCGGTTTTCCCGGTAATCCGTATTTGCT (site GACTTGACTAG) | 0.00311
TACTTGACATGGACCGGTTTTCCCGGTAATCCGTATTTGCT (site TAATTGACTAG) | 0.201
TACTTGACATGGACCGGTTTTCCCGGTAATCCGTATTTGCT (site TACATGACTAG) | 0.0307
TACTTGACATGGACCGGTTTTCCCGGTAATCCGTATTTGCT (site TACCTGACTAG) | 0.89
TACTTGACATGGACCGGTTTTCCCGGTAATCCGTATTTGCT (site TACGTGACTAG) | 0.16
TACTTGACATGGACCGGTTTTCCCGGTAATCCGTATTTGCT (site TACTAGACTAG) | 0.43
TACTTGACATGGACCGGTTTTCCCGGTAATCCGTATTTGCT (site TACTCGACTAG) | 0.277
TACTTGACATGGACCGGTTTTCCCGGTAATCCGTATTTGCT (site TACTGGACTAG) | 0.46
TACTTGACATGGACCGGTTTTCCCGGTAATCCGTATTTGCT (site TACTTAACTAG) | 0
TACTTGACATGGACCGGTTTTCCCGGTAATCCGTATTTGCT (site TACTTCACTAG) | 0.00555
TACTTGACATGGACCGGTTTTCCCGGTAATCCGTATTTGCT (site TACTTGACTAA) | 0.00336
TACTTGACATGGACCGGTTTTCCCGGTAATCCGTATTTGCT (site TACTTGACTAC) | 0.0348
TACTTGACATGGACCGGTTTTCCCGGTAATCCGTATTTGCT (site TACTTGACTAG) | 1.12
TACTTGACATGGACCGGTTTTCCCGGTAATCCGTATTTGCT (site TACTTGACTAT) | 0.00796
TACTTGACATGGACCGGTTTTCCCGGTAATCCGTATTTGCT (site TACTTGACTCG) | 0
TACTTGACATGGACCGGTTTTCCCGGTAATCCGTATTTGCT (site TACTTGACTGG) | 0
TACTTGACATGGACCGGTTTTCCCGGTAATCCGTATTTGCT (site TACTTGACTTG) | 0.00876
TACTTGACATGGACCGGTTTTCCCGGTAATCCGTATTTGCT (site TACTTGCCTAG) | 0
TACTTGACATGGACCGGTTTTCCCGGTAATCCGTATTTGCT (site TACTTGGCTAG) | 0.00865
TACTTGACATGGACCGGTTTTCCCGGTAATCCGTATTTGCT (site TACTTGTCTAG) | 0.0219
